We go through ten compounds from ChEMBL document CHEMBL3351766, “Asymmetric binding to NS5A by daclatasvir (BMS-790052) and analogs suggests two novel modes of HCV inhibition” (J Med Chem, 2014).

Experiment [1] has as its system Hepatitis C virus. Put plainly: Antiviral activity against HCV genotype 1b expressing NS5A Y93H mutant assessed as replication level. The class given is functional, Hepacivirus hominis. To be noted: for EC50: Hepatitis C virus, genotype 1b.
For experiment [2], the system named is Hepatitis C virus. The experiment in a line: Antiviral activity against HCV genotype 1b expressing NS5A L31M/Y93H mutant assessed as replication level. The class given is functional, Hepacivirus hominis.
Experiment [3] relates to Hepatitis C virus. Put plainly: Antiviral activity against HCV genotype 1b expressing NS5A L31M mutant assessed as replication level. Format: functional, Hepacivirus hominis.
Experiment [4] concerns Hepatitis C virus. Put plainly: Antiviral activity against HCV genotype 1b expressing NS5A L31V mutant assessed as replication level. Format: functional, Hepacivirus hominis.
Experiment [5] concerns Hepatitis C virus. Put plainly: Antiviral activity against HCV genotype 1b expressing NS5A L31V/Y93H mutant assessed as replication level. Format: functional, Hepacivirus hominis.
For experiment [6], the system named is Hepatitis C virus. Put plainly: Antiviral activity against wild type HCV genotype 1b assessed as replication level. The class given is functional, Hepacivirus hominis. To be noted: for EC50: Hepatitis C virus, genotype 1b.
The subject of experiment [7] is Hepatitis C virus. The experiment in a line: Antiviral activity against HCV genotype 1b expressing NS5A L31F mutant assessed as replication level.

In the case of `COC(=O)N[C@H](C(=O)N1CCC[C@H]1c1ncc(-c2ccc(N=[N+]=[N-])cc2)[nH]1)C(C)C`, in experiment [1], the EC50 amounted to 8 nM.

Take `COC(=O)N[C@H](C(=O)N1CCC[C@H]1c1ncc(-c2ccc(-c3ccc(-c4cnc([C@@H]5CCCN5C(=O)[C@@H](NC(=O)OC)C(C)C)[nH]4)cc3)cc2)[nH]1)C(C)C` [DACLATASVIR]: the Activity in experiment [2] turned out to be 70%; in experiment [1], 27%; in experiment [3], 99%; in experiment [4], 158%; in experiment [5], 50%; in experiment [6] it was 100%. Further, the EC50 turned out to be 18.3 nM in experiment [2] (Hepatitis C virus, genotype 1b); 0.0623 nM in experiment [1]; 0.0084 nM in experiment [3] (Hepatitis C virus, genotype 1b); 0.0717 nM in experiment [4] (Hepatitis C virus, genotype 1b); 38 nM in experiment [5] (Hepatitis C virus, genotype 1b); 0.0026 nM in experiment [6].

Turning to `COC(=O)N[C@H](C(=O)N1C[C@H](N=[N+]=[N-])C[C@H]1c1ncc(-c2ccc(-c3ccc(-c4cnc([C@@H]5C[C@@H](N=[N+]=[N-])CN5C(=O)[C@@H](NC(=O)OC)C(C)C)[nH]4)cc3)cc2)[nH]1)C(C)C`, the EC50 in experiment [6] came to 0.0184 nM.

With `COC(=O)N[C@H](C(=O)N1C[C@@H](N=[N+]=[N-])C[C@H]1c1ncc(-c2ccc(-c3ccc(-c4cnc([C@@H]5C[C@H](N=[N+]=[N-])CN5C(=O)[C@@H](NC(=O)OC)C(C)C)[nH]4)cc3)cc2)[nH]1)C(C)C`, the EC50 in experiment [6] is 0.023 nM.

As to `COC(=O)N[C@H](C(=O)N1CCC[C@H]1c1nc(Br)c(-c2ccc(N=[N+]=[N-])cc2)[nH]1)C(C)C`, the EC50 in experiment [7] came to 0.7 nM.

Regarding `COC(=O)N[C@H](C(=O)N1CCC[C@H]1c1ncc(-c2ccc(Oc3ccc(-c4cnc([C@@H]5CCCN5C(=O)[C@@H](NC(=O)OC)C(C)C)[nH]4)cc3)cc2)[nH]1)C(C)C`, the EC50 in experiment [6] came out at 30 nM.

Turning to `COC(=O)N[C@H](C(=O)N1CCC[C@H]1c1ncc(-c2ccccc2)[nH]1)C(C)C`, the concentration giving a half-maximal response (EC50) in experiment [6] was over 1000 nM.

On to `COC(=O)N[C@H](C(=O)N1C[C@H](n2cc(C(=O)OC)nn2)C[C@H]1c1ncc(-c2ccc(-c3ccc(-c4cnc([C@@H]5C[C@@H](n6cc(C(=O)OC)nn6)CN5C(=O)[C@@H](NC(=O)OC)C(C)C)[nH]4)cc3)cc2)[nH]1)C(C)C`, for which the EC50 in experiment [6] came to 0.0118 nM.

Consider `COC(=O)N[C@H](C(=O)N1CCC[C@H]1c1nc(Br)c(-c2ccc(Oc3ccc(-c4[nH]c([C@@H]5CCCN5C(=O)[C@@H](NC(=O)OC)C(C)C)nc4Br)cc3)cc2)[nH]1)C(C)C`, for which the half-maximal effective concentration (EC50) in experiment [6] came out at 0.05 nM.

Consider `COC(=O)N[C@H](C(=O)N1C[C@@H](n2cc(C(=O)OC)nn2)C[C@H]1c1ncc(-c2ccc(-c3ccc(-c4cnc([C@@H]5C[C@H](n6cc(C(=O)OC)nn6)CN5C(=O)[C@@H](NC(=O)OC)C(C)C)[nH]4)cc3)cc2)[nH]1)C(C)C`, for which, in experiment [6], the EC50 was over 10 nM.

As a reminder, the EC50 is the midpoint of the concentration-response curve.
